From patent US20250171438A1 (Agios Pharmaceuticals, Inc., priority 2022, published 2025)

Target: T1, human PAH with the R408W mutation (Homo sapiens, UniProt P00439, R408W)
T1 construct: expressed in transfected cells
T1 sequence (P00439 1-452 R408W): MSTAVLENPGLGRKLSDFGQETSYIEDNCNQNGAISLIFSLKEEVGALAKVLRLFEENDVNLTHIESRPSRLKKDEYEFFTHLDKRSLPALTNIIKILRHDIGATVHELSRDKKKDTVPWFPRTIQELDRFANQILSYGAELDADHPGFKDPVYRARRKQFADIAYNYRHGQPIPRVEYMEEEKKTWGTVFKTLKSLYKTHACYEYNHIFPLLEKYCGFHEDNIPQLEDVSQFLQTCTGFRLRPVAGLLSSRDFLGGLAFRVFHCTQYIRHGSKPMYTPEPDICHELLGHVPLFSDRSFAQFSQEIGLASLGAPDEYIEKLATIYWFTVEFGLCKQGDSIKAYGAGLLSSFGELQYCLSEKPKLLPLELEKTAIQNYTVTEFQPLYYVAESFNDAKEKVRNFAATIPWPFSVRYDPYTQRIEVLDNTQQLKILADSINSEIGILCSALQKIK
Test: Cell Based Phenylalanine Flux Assay
Details: A375 cells expressing human R408W PAH; 24 hrs compound incubation; 13C-Tyrosine by LC-MS; average where tested multiple times; read-out: AC50

Compound	AC50 [nM]
O=C(c1oc(-c2ccccn2)nc1C(F)F)N1CCc2[nH]cnc2[C@@H]1c1nc2c(F)cccc2s1 [Example 1797, (R)-(4-(difluoromethyl)-2-(pyridin-2-yl)oxazol-5-yl)(4-(4-fluorobenzo[d]thiazol-2-yl)-6,7-dihydro-1H-imidazo[4,5-c]pyridin-5(4H)-yl)methanone]	< 500
O=C(c1oc(-c2ccccn2)nc1C(F)F)N1CCc2[nH]cnc2[C@H]1c1nc2c(F)cccc2s1 [Example 1798, (S)-(4-(difluoromethyl)-2-(pyridin-2-yl)oxazol-5-yl)(4-(4-fluorobenzo[d]thiazol-2-yl)-6,7-dihydro-1H-imidazo[4,5-c]pyridin-5(4H)-yl)methanone]	< 500
Cn1cc(-c2nc(C(F)F)c(C(=O)N3CCc4[nH]cnc4[C@H]3c3nc4ccccc4s3)o2)cn1 [Example 1799]	< 500
O=C(c1nnc(-c2ccc(F)c(F)c2)o1)N1CCc2[nH]cnc2[C@H]1c1nc2ccccc2s1 [Example 1801]	< 500
Cn1nc(C(F)F)cc1C(=O)N1CCc2[nH]cnc2[C@H]1c1nc2ccccc2s1 [Example 1803]	< 500
Cn1nc(C(F)F)cc1C(=O)N1CCc2[nH]cnc2[C@@H]1c1nc2ccccc2s1 [Example 1804, (R)-(4-(benzo[d]thiazol-2-yl)-6,7-dihydro-1H-imidazo[4,5-c]pyridin-5(4H)-yl)(3-(difluoromethyl)-1-methyl-1H-pyrazol-5-yl)methanone]	1000 to 5000
COCc1nc(C(F)F)c(C(=O)N2CCc3[nH]cnc3[C@H]2c2nc3ccccc3s2)o1 [Example 1807]	< 500
COCc1nc(C(F)F)c(C(=O)N2CCc3[nH]cnc3[C@@H]2c2nc3ccccc3s2)o1 [Example 1808, (R)-(4-(benzo[d]thiazol-2-yl)-6,7-dihydro-1H-imidazo[4,5-c]pyridin-5(4H)-yl)(4-(difluoromethyl)-2-(methoxymethyl)oxazol-5-yl)methanone]	1000 to 5000
CC(C)(O)c1nc(C(F)F)c(C(=O)N2CCc3[nH]cnc3[C@H]2c2nc3ccccc3s2)o1 [Example 1809]	< 500
CC(C)(O)c1nc(C(F)F)c(C(=O)N2CCc3[nH]cnc3[C@@H]2c2nc3ccccc3s2)o1 [Example 1810, (R)-(4-(benzo[d]thiazol-2-yl)-6,7-dihydro-1H-imidazo[4,5-c]pyridin-5(4H)-yl)(4-(difluoromethyl)-2-(2-hydroxypropan-2-yl)oxazol-5-yl)methanone]	1000 to 5000
Cn1ncnc1C(=O)N1CCc2[nH]cnc2[C@H]1c1nc2ccccc2s1 [Example 1813]	500 to 1000

Second part, the compound after the results:

AC50 [nM]	Compound
1000 to 5000	O=C(c1nnc(-c2ccc(F)c(F)c2)o1)N1CCc2[nH]cnc2[C@@H]1c1nc2ccccc2s1 [Example 1802, (R)-(4-(benzo[d]thiazol-2-yl)-6,7-dihydro-1H-imidazo[4,5-c]pyridin-5(4H)-yl)(5-(3,4-difluorophenyl)-1,3,4-oxadiazol-2-yl)methanone]
< 500	Cn1ccc(-c2nnc(C(=O)N3CCc4[nH]cnc4[C@H]3c3nc4ccccc4s3)o2)n1 [Example 1805]
1000 to 5000	Cn1ccc(-c2nnc(C(=O)N3CCc4[nH]cnc4[C@@H]3c3nc4ccccc4s3)o2)n1 [Example 1806, (R)-(4-(benzo[d]thiazol-2-yl)-6,7-dihydro-1H-imidazo[4,5-c]pyridin-5(4H)-yl)(5-(1-methyl-1H-pyrazol-3-yl)-1,3,4-oxadiazol-2-yl)methanone]
< 500	O=C(c1nnc(-c2ccc(F)cc2F)o1)N1CCc2[nH]cnc2[C@H]1c1nc2ccccc2s1 [Example 1811]
500 to 1000	O=C(c1nnc(-c2ccc(F)cc2F)o1)N1CCc2[nH]cnc2[C@@H]1c1nc2ccccc2s1 [Example 1812, (R)-(4-(benzo[d]thiazol-2-yl)-6,7-dihydro-1H-imidazo[4,5-c]pyridin-5(4H)-yl)(5-(2,4-difluorophenyl)-1,3,4-oxadiazol-2-yl)methanone]
